# Source: patent US11612583B2, “Disease modifying methods for treating neurodegenerative diseases using nootropic agents” (priority 2018, dated 2023)
# Entries after “also recorded” stand apart in the source; their conditions may differ.
# Assays:
# PINK1-KO rats [1] = assay: Baseline oxygen consumption rates in midbrain slices of PINK1-KO rats; format: in vivo, rat; details: intraperitoneal Forskolin 1.6 mg/kg with or without Noopept 0.05 μg/kg; FIG. 12
# Experimental: Wild-type (PINK1+/+) or PINK1 knockout (PINK1−/−) rats were treated with intraperitoneal injections of DMSO control or of Forskolin (1.6 mg/kg body weight) once every 2 days for two doses followed by co-administration with Noopept (0.05 μg/kg) for three more doses (once every two days) for up to a total treatment time of 10 days. At the end of each treatment, a battery of motor tests were performed in vehicle-treated or WT and PINK1-KO rats treated with compounds to analyze for muscle strength in hind legs by using a grip strength analyzer. In addition, muscle coordination and balance were assessed by subjecting the rats to cross a 1-meter, tapered beam balance (2 cm width) for up to three trials per animal. Upon completing the behavioral tests, the rats were then transcardially perfused with phosphate buffered saline, and the brains were extracted, midbrain slices were generated by using a vibratome (brain slicer) at room temperature and maintained in artificial cerebral spinal fluid. The oxygen consumption rates were then measured by using an XF24^e Metabolic Analyzer to measure energy production in the brain (oxidative phosphorylation) as described in Example 1 but with the following modifications. […] The brain slices were analyzed for baseline respiration for five cycles with each cycle consisting of 3 min. of mixing, 3 min. of waiting and 2 min. of measuring OCRs.
# PINK1-KO rats [2] = assay: Hind limb grip strength in PINK1-KO rats; format: in vivo, rat; details: intraperitoneal Forskolin 1.6 mg/kg with or without Noopept 0.05 μg/kg; 10 days; post vs pre-treatment; FIG. 11
# Experimental: (§1) All experiments involving mice and rats were performed in accord with ARRIVE (Animal Research: Reporting of In Vivo Experiments) guidelines. Wild-type C57BL/6 and PINK1 knockout mice (B6.129S4-Pink1^tm1Slm/J), wild-type (Long Evans rats) and PINK1 knockout (LEH-PINK1^tm1sage.Park6) rats (SAGE labs through Horizon Discovery) were handled humanely and appropriately per the ARRIVE guidelines. All mice were housed at the Laboratory of Animal Resources (University of Nevada, Reno) in cages containing sufficient bedding, food (pellets), water, with sufficient social, nutritional and “enriched” environments, and maintained in HVAC-pressurized/sterile environment and in 12:12 hr light/dark cycles.
# (§2) Wild-type (PINK1+/+) or PINK1 knockout (PINK1−/−) rats were treated with intraperitoneal injections of DMSO control or of Forskolin (1.6 mg/kg body weight) once every 2 days for two doses followed by co-administration with Noopept (0.05 μg/kg) for three more doses (once every two days) for up to a total treatment time of 10 days. […] In addition, muscle coordination and balance were assessed by subjecting the rats to cross a 1-meter, tapered beam balance (2 cm width) for up to three trials per animal. […]
# [3] = system: primary cortical neurons treated with rotenone; assay: Oxygen consumption rates (XF24e Extracellular Flux Analyzer) in rotenone-treated primary cortical neurons; format: cell-based, mouse
# Experimental: Rotenone (1.26 mM stock, Sigma, Cat #R8875) was freshly prepared in water prior to each use. Stocks of rotenone were maintained in the dark at −20° C. for up to 6 months. Rotenone was used at 65 μM for neuroblastoma cells and at 65 nM for primary cortical neurons for 4-6 hours to induce oxidative and autophagic stress.
# Forskolin (Coleus forskohlii, >98% HPLC, Sigma Aldrich) was prepared in DMSO as 5 mg/ml stocks (stable for up to 6 months if kept in the dark and stored in −20° C. until ready to use). On the day of the experiment, the forskolin aliquot was thawed and cells were treated once with forskolin at a concentration of 1 to up to 10 μM of forskolin in complete media for treating primary cortical neurons or for intraperitoneal administration of PINK1 knockout mice or PINK1 knockout rats.
# Rotenone-treated primary neurons were then exposed to 250 μM dibutyryl cyclic AMP (dbt-cAMP) or with the parental or water-soluble form (NKH477) of Forskolin (6.5 μM-8.5 μM, 24 hrs). The basal oxygen consumption rates (OCRs), a proxy for mitochondrial function, were analyzed by using an XF24^e Extracellular Flux Analyzer (Agilent Technologies). The maximal oxygen consumption rates (OCRs), a proxy for maximal buffering capacity of mitochondrial function, were also analyzed by using an XF24^e Extracellular Flux Analyzer in primary cortical neurons treated with 1 μM FCCP, an ionophore that acts as a mitochondrial uncoupler.
# PINK1-KO rats [4] = assay: Tapered beam balance test (coordination and balance) in PINK1-KO rats; format: in vivo, rat; details: intraperitoneal Forskolin 1.6 mg/kg with or without Noopept 0.05 μg/kg; 10 days; post vs pre-treatment; FIG. 10
# Experimental: as §1, §2
# PINK1-KO rats [5] = assay: Tyrosine hydroxylase immunofluorescence in midbrain slices of PINK1-KO rats; format: in vivo, rat; details: female PINK1-KO rats; intraperitoneal Forskolin 1.6 mg/kg with or without Noopept 0.05 μg/kg; FIG. 13
# Experimental: Wild-type (PINK1+/+) or PINK1 knockout (PINK1−/−) rats were treated with intraperitoneal injections of DMSO control or of Forskolin (1.6 mg/kg body weight) once every 2 days for two doses followed by co-administration with Noopept (0.05 μg/kg) for three more doses (once every two days) for up to a total treatment time of 10 days. At the end of each treatment, a battery of motor tests were performed in vehicle-treated or WT and PINK1-KO rats treated with compounds to analyze for muscle strength in hind legs by using a grip strength analyzer. In addition, muscle coordination and balance were assessed by subjecting the rats to cross a 1-meter, tapered beam balance (2 cm width) for up to three trials per animal. Another group of wild-type and PINK1-KO rats were sacrificed, and intracardially perfused with saline followed by 4% formaldehyde. Midbrain slices from wild-type and PINK1-KO rats were immunostained for tyrosine hydroxylase (TH, purple) to identify midbrain dopamine neurons. […] (*:p<0.05 vs. WT/vehicle, **:p<0.05 vs. PINK1-KO/vehicle, One-Way ANOVA, Tukey's test, N=4-7 rats per group).
smiles,measurement,setting,value
C=C[C@@]1(C)CC(=O)[C@]2(O)[C@@]3(C)[C@@H](O)CCC(C)(C)[C@@H]3[C@H](O)[C@H](OC(C)=O)[C@@]2(C)O1 [Forskolin],basal respiration / oxidative phosphorylation in the midbrain (baseline OCRs),PINK1-KO rats [1],sufficient to reverse the loss in oxidative phosphorylation; also recorded: significantly restored basal respiration
same,hind limb muscle strength,PINK1-KO rats [2],can reverse the loss of hind limb strength; also recorded: can reverse the loss of muscle strength
same,spare respiratory capacity (Maximal OCRs-Baseline OCRs),"[3]; after rotenone 65 nM 24 hours, 6.5 μM-8.5 μM, 24 hrs, 1 μM FCCP, FIG. 2",completely restored; also recorded: significantly restored
same,baseline mitochondrial respiration (basal OCRs),"[3]; after rotenone 65 nM 24 hours, Forskolin or NKH477 6.5 μM-8.5 μM, 24 hrs, FIG. 1",partially or completely restored; also recorded: significantly restored
same,protection against rotenone-mediated neurodegeneration,[3]; concentrations of Forskolin greater than 12.5 μM,did not confer significant protection
same,concentration of maximal effects on protection against loss of neuronal metabolism (oxidative phosphorylation and glycolysis),"[3]; rotenone-treated primary neurons, bimodal",about 10 μM
same,"coordination and balance (motor score, falls and slips per crossing)",PINK1-KO rats [4],can reverse the loss of coordination and balance; also recorded: can reverse the loss of balance and coordination
same,substantia nigra/midbrain dopamine neurons (integrated density of TH immunofluorescence),PINK1-KO rats [5],completely reverses the loss of midbrain dopamine neurons; also recorded: significantly reversed neurodegeneration
